Data as given in patent US8846909B2, “Bicyclic heteroaryl kinase inhibitors and methods of use” (University of Rochester, priority 2010, dated 2014).

target: T1, MLK3 (Homo sapiens, UniProt Q16584); test: Radiometric filter plate MLK3 assay; type: biochemical; details: read-out: MK3 IC50; note: 2 µM cold ATP (Km)
T1 construct: purchased Dundee DU8313
Procedure: After a twenty minute incubation, the reactions were washed through filter plates and read on a scintillation counter. Results are shown in Table 10 below, in which +++ indicates ≦0.1 μM, ++ indicates >0.1 μM and ≦1 μM, and + indicates >1 μM.

T1 sequence (Q16584 whole entry): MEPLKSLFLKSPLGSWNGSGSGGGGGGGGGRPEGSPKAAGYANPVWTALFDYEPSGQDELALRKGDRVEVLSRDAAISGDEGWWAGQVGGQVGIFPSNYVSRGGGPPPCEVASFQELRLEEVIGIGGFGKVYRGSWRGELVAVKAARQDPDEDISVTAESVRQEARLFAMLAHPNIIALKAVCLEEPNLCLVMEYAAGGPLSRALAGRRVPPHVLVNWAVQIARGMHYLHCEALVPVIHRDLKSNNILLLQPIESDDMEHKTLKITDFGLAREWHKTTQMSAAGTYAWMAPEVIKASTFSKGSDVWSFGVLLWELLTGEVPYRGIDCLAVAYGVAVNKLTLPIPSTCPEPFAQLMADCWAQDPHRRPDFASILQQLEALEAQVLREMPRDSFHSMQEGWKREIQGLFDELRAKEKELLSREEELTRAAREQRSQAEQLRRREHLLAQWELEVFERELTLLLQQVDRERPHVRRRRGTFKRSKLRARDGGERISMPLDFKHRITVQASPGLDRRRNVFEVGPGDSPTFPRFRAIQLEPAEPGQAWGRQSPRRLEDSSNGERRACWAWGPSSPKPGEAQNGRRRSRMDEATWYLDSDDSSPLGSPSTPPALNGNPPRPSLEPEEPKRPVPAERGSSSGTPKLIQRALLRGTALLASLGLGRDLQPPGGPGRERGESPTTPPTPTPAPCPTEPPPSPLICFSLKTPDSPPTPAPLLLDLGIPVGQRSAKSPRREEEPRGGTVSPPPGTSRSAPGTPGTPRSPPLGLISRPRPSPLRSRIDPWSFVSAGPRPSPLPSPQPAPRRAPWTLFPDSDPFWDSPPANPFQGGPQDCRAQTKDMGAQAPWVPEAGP

Row | IC50 [nM] | SMILES
1 | 100 to 1000 | CN1CCN(C(=O)c2ccc(-c3cnc4[nH]cc(-c5ccc6[nH]ccc6c5)c4c3)cc2)CC1 [Example 145, {4-[3-(1H-indol-5-yl)-1H-pyrrolo[2,3-b]pyridin-5-yl]-phenyl}-(4-methyl-piperazin-1-yl)-methanone]
2 | < 100 | CN1CCN(Cc2ccc(-c3cnc4[nH]cc(-c5ccc6[nH]ccc6c5)c4c3)cc2)CC1=O [Example 141, 4-{4-[3-(1H-indol-5-yl)-1H-pyrrolo[2,3-b]pyridin-5-yl]-benzyl}-1-methyl-piperazin-2-one]
3 | > 1000 | CN1CCN(c2cc(-c3cnc4[nH]c(=O)n(-c5ccc6[nH]ccc6c5)c4n3)ccn2)CC1 [Example 66, 1-(1H-indol-5-yl)-6-(2-(4-methylpiperazin-1-yl)pyridin-4-yl)-1H-imidazo[4,5-b]pyrazin-2(3H)-one]
4 | < 100 | CC(=O)Nc1ccc(-c2cnc3[nH]cc(-c4ccc5[nH]ccc5c4)c3c2)cc1 [Example 3, N-(4-(3-(1H-indol-5-yl)-1H-pyrrolo[2,3-b]pyridin-5-yl)phenyl)acetamide]
5 | > 1000 | COc1cc(-c2cnc3c(c2)C(=Cc2ccccc2)C(=O)N3)cc(OC)c1OC [Example 130, 3-benzylidene-5-(3,4,5-trimethoxy-phenyl)-1,3-dihydro-pyrrolo[2,3-b]pyridin-2-one]
6 | < 100 | Nc1ccc(-c2cnc3[nH]cc(-c4ccc5[nH]ccc5c4)c3c2)cc1 [Example 8, 4-(3-(1H-indol-5-yl)-1H-pyrrolo[2,3-b]pyridin-5-yl)aniline]
7 | < 100 | COc1cc(-c2cnc3[nH]cc(-c4ccc5[nH]ccc5c4)c3n2)ccc1N [Example 38, 4-(7-(1H-indol-5-yl)-5H-pyrrolo[3,2-b]pyrazin-2-yl)-2-methoxyaniline]
8 | 100 to 1000 | c1cc2cc(-c3c[nH]c4ncc(-c5ccc(NCCN6CCCC6)nc5)cc34)ccc2[nH]1 [Example 31, 5-(3-(1H-indol-5-yl)-1H-pyrrolo[2,3-b]pyridin-5-yl)-N-(2-(pyrrolidin-1-yl)ethyl)pyridin-2-amine]
9 | > 1000 | O=c1[nH]c2ncc(-c3ccc(N4CCOCC4)cc3)nc2n1-c1ccc2scnc2c1 [Example 100, 1-(benzo[d]thiazol-5-yl)-6-(4-morpholinophenyl)-1H-imidazo[4,5-b]pyrazin-2(3H)-one]
10 | < 100 | CC(=O)N1CCN(C(=O)c2ccc(-c3cnc4[nH]cc(-c5ccc6[nH]ccc6c5)c4c3)cc2)CC1 [Example 146, 1-(4-{4-[3-(1H-indol-5-yl)-1H-pyrrolo[2,3-b]pyridin-5-yl]-benzoyl}piperazin-1-yl)-ethanone]
11 | > 1000 | O=c1[nH]c2ncc(-c3ccc(N4CCOCC4)cc3)nc2n1-c1ccc2[nH]ncc2c1 [Example 89, 1-(1H-indazol-5-yl)-6-(4-morpholinophenyl)-1H-imidazo[4,5-b]pyrazin-2(3H)-one]
12 | > 1000 | COc1cc(-c2cnc3c(c2)C(=Cc2ccc(C#N)cc2)C(=O)N3)cc(OC)c1OC [Example 133, 4-[2-oxo-5-(3,4,5-trimethoxy-phenyl)-1,2-dihydro-pyrrolo[2,3-b]pyridin-3-ylidenemethyl]-benzonitrile]
13 | < 100 | CC1CN(Cc2ccc(-c3cnc4[nH]cc(-c5ccc6[nH]ccc6c5)c4c3)cc2)CCN1C (stereo not shown) [Example 198, 5-(4-((3,4-dimethylpiperazin-1-yl)methyl)phenyl)-3-(1H-indol-5-yl)-1H-pyrrolo[2,3-b]pyridine]
14 | < 100 | COc1ccc(-c2cnc3[nH]cc(-c4ccc(C(N)=O)cc4)c3c2)cc1OC [Example 26, 4-(5-(3,4-dimethoxyphenyl)-1H-pyrrolo[2,3-b]pyridin-3-yl)benzamide]
15 | < 100 | CN1CCN(Cc2ccc(-c3cnc4[nH]cc(-c5ccc(C(N)=O)cc5)c4c3)cc2)CC1=O [Example 158, 4-{5-[4-(4-methyl-3-oxo-piperazin-1-ylmethyl)-phenyl]-1H-pyrrolo[2,3-b]pyridin-3-yl}-benzamide]
16 | < 100 | CN1CCN(Cc2ccc(-c3cnc4[nH]cc(-c5ccc6nccc(O)c6c5)c4c3)cc2)CC1 [Example 200]
